{"source": "ChEMBL document CHEMBL4665648", "about": "“Potent and selective inhibitors of receptor-interacting protein kinase 1 that lack an aromatic back pocket group” (Bioorg Med Chem Lett, 2019)", "key": {"[1]": {"molecular_target": "Phosphorylase b kinase gamma catalytic chain, liver/testis isoform (Homo sapiens) (UniProt P15735)", "sequence (P15735 whole entry, canonical isoform)": "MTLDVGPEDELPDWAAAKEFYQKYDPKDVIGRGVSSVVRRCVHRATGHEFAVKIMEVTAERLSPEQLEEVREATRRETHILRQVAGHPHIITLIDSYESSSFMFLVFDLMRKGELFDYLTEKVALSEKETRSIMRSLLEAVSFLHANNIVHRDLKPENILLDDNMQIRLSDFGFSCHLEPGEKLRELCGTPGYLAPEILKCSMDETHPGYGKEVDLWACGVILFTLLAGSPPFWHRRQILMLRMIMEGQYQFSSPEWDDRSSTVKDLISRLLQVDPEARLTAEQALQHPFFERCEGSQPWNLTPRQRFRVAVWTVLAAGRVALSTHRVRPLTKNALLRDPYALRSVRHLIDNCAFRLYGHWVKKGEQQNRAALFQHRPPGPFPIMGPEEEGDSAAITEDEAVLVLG", "test": "Inhibition of recombinant human N-terminal GST-tagged full length PHKG2 expressed in baculovirus expression system using Ser/Thr 07 as substrate at 10 uM incubated for 60 mins by Z'-lyte assay relative to control"}, "[2]": {"molecular_target": "Tyrosine-protein kinase Srms (Homo sapiens) (UniProt Q9H3Y6)", "test": "Inhibition of recombinant human GST-tagged full length SRM expressed in baculovirus expression system using Tyr 01 as substrate at 10 uM incubated for 60 mins by Z'-Lyte assay relative to control"}, "[3]": {"molecular_target": "MAP kinase-interacting serine/threonine-protein kinase 1 (Homo sapiens) (UniProt Q9BUB5)", "test": "Inhibition of recombinant human GST-tagged full length MKNK1 expressed in insect expression system using Ser/Thr 07 as substrate at 10 uM incubated for 60 mins by Z'-lyte assay relative to control"}, "[4]": {"molecular_target": "Tyrosine-protein kinase Blk (Homo sapiens) (UniProt P51451)", "test": "Inhibition of recombinant human His-tagged full length BLK expressed in baculovirus expression system using Tyr 01 as substrate at 10 uM incubated for 60 mins by Z'-Lyte assay relative to control"}, "[5]": {"molecular_target": "Leucine-rich repeat serine/threonine-protein kinase 2 (Homo sapiens) (UniProt Q5S007)", "test": "Inhibition of recombinant human GST-tagged LRRK2 (970 to 2527 residues) expressed in baculovirus expression system using LRRKtide as substrate at 10 uM incubated for 60 mins by Adapta assay relative to control"}, "[6]": {"molecular_target": "Beta-adrenergic receptor kinase 1 (Homo sapiens) (UniProt P25098)", "sequence (P25098 whole entry)": "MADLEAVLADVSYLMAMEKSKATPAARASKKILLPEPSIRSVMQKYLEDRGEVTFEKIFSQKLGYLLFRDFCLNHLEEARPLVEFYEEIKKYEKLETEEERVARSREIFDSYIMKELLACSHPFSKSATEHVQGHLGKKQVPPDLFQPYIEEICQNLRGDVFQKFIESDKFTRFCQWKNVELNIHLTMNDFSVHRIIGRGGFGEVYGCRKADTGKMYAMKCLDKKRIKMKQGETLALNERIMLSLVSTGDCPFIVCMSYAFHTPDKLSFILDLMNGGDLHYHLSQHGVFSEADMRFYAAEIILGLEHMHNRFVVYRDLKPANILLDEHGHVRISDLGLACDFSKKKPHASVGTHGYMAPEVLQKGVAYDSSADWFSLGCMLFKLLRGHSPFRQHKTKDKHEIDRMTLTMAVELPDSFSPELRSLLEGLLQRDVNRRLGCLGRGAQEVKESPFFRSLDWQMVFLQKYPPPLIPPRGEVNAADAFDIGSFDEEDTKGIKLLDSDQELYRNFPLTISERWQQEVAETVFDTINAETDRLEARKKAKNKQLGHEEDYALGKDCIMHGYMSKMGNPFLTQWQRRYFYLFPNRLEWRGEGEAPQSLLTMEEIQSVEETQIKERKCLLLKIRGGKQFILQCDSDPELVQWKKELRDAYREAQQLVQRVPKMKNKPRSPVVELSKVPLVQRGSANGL", "test": "Inhibition of recombinant human His-tagged full length GRK2 expressed in baculovirus expression system using Ser/Thr 16 as substrate at 10 uM incubated for 60 mins by Z'-Lyte assay relative to control"}, "[7]": {"molecular_target": "Mitogen-activated protein kinase kinase kinase 10 (Homo sapiens) (UniProt Q02779)", "test": "Inhibition of tracer 236 binding to recombinant human GST-tagged full length MLK2 expressed in baculovirus expression system at 10 uM incubated for 60 mins by Lanthascreen assay relative to control"}, "[8]": {"molecular_target": "RAC-alpha serine/threonine-protein kinase (Homo sapiens) (UniProt P31749)", "test": "Inhibition of recombinant human His-tagged full length AKT1 expressed in baculovirus expression system using Ser/Thr 06 as substrate at 10 uM incubated for 60 mins by Z'-Lyte assay relative to control"}, "[9]": {"molecular_target": "Glycogen synthase kinase-3 beta (Homo sapiens) (UniProt P49841)", "test": "Inhibition of recombinant human N-terminal GST-tagged full length GSK3beta expressed in baculovirus expression system using Ser/Thr 09 as substrate at 10 uM incubated for 60 mins by Z'-Lyte assay relative to control"}, "[10]": {"molecular_target": "Homeodomain-interacting protein kinase 2 (Homo sapiens) (UniProt Q9H2X6)", "test": "Inhibition of recombinant human N-terminal GST-tagged HIPK2 expressed in baculovirus expression system using Ser/Thr 09 as substrate at 10 uM incubated for 60 mins by Z'-Lyte assay relative to control"}, "[11]": {"molecular_target": "BDNF/NT-3 growth factors receptor (Homo sapiens) (UniProt Q16620)", "sequence (Q16620 32-822 limits assumed)": "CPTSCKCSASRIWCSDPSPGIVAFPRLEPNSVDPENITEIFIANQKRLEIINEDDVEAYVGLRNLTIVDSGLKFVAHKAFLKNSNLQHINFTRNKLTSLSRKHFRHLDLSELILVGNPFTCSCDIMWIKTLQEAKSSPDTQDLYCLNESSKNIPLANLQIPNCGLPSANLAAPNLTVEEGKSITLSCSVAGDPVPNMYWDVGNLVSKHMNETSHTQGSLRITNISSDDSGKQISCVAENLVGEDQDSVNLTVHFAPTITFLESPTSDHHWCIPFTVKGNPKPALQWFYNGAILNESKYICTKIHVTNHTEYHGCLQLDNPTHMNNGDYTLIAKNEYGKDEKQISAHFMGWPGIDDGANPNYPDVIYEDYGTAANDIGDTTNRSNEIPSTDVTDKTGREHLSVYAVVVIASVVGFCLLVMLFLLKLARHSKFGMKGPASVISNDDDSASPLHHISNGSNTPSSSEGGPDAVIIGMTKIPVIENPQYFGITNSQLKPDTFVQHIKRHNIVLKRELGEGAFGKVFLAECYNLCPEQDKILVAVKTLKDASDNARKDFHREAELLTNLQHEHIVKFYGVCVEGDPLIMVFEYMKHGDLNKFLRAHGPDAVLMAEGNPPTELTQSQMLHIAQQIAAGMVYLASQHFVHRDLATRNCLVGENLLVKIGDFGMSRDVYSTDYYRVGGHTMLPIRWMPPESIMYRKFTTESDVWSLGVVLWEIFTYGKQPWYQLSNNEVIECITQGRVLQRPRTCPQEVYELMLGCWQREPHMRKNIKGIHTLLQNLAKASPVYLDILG", "test": "Inhibition of recombinant human His-tagged TRKB (526 to 838 residues) expressed in baculovirus expression system using Tyr 01 as substrate at 10 uM incubated for 60 mins by Z'-Lyte assay relative to control"}, "[12]": {"molecular_target": "Homeodomain-interacting protein kinase 4 (Homo sapiens) (UniProt Q8NE63)", "test": "Inhibition of recombinant human N-terminal GST-tagged HIPK4 expressed in baculovirus expression system using Ser/Thr 18 as substrate at 10 uM incubated for 60 mins by Z'-Lyte assay relative to control"}, "[13]": {"molecular_target": "Mitogen-activated protein kinase kinase kinase 9 (Homo sapiens) (UniProt P80192)", "sequence (P80192 whole entry, looked up, the tested form may be a part)": "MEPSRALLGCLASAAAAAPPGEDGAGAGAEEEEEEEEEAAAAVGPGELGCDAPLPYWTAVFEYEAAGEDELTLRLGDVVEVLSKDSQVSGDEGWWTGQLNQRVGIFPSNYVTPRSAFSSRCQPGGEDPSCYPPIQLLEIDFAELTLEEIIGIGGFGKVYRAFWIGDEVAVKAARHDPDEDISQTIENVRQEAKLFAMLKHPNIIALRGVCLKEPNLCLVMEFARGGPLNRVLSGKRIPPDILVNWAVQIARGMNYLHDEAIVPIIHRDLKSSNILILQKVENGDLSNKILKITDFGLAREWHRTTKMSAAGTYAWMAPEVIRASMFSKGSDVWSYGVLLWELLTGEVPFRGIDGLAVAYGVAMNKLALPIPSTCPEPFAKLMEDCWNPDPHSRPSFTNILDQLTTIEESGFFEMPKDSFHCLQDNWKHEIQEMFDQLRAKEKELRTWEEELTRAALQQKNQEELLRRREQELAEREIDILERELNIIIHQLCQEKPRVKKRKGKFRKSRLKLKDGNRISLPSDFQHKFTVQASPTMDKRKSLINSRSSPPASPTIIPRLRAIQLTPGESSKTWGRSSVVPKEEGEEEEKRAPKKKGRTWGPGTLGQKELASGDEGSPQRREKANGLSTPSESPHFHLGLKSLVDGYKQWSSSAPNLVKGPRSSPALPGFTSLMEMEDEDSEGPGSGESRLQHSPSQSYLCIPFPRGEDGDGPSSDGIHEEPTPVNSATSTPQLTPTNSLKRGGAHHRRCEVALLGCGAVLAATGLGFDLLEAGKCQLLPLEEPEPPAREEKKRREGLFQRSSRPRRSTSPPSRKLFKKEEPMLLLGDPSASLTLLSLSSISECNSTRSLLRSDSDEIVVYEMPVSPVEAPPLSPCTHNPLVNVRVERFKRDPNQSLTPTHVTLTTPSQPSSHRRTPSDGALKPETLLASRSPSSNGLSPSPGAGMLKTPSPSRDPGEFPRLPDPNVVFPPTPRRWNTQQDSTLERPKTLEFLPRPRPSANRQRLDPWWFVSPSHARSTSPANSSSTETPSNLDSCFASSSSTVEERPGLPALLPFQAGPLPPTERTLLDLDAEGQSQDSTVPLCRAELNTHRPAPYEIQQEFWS", "test": "Inhibition of recombinant human GST-tagged MLK1 (1 to 500 residues) expressed in baculovirus expression system using Ser/Thr 07 as substrate at 10 uM incubated for 60 mins by Z'-lyte assay relative to control"}, "[14]": {"molecular_target": "Serine/threonine-protein kinase DCLK2 (Homo sapiens) (UniProt Q8N568)", "test": "Inhibition of recombinant human GST-tagged full length DCAMKL2 expressed in baculovirus expression system using Ser/Thr 17 as substrate at 10 uM incubated for 60 mins by Z'-Lyte assay relative to control"}, "[15]": {"molecular_target": "DNA-dependent protein kinase catalytic subunit (Homo sapiens) (UniProt P78527)", "test": "Inhibition of recombinant human untagged full length DNA-PK expressed in baculovirus expression system using Ser/Thr 26 as substrate at 10 uM incubated for 60 mins by Z'-Lyte assay relative to control"}, "[16]": {"molecular_target": "Mitogen-activated protein kinase 10 (Homo sapiens) (UniProt P53779)", "test": "Inhibition of recombinant human N-terminal GST-tagged full length JNK3 expressed in baculovirus expression system using Ser/Thr 04 as substrate at 10 uM incubated for 60 mins by Z'-lyte assay relative to control"}, "[17]": {"molecular_target": "Protein kinase C alpha type (Homo sapiens) (UniProt P17252)", "test": "Inhibition of recombinant human His-tagged full length PKCalpha expressed in Escherichia coli expression system using Ser/Thr 07 as substrate at 10 uM incubated for 60 mins by Z'-lyte assay relative to control"}, "[18]": {"molecular_target": "Epithelial discoidin domain-containing receptor 1 (Homo sapiens) (UniProt Q08345)", "test": "Inhibition of tracer 178 binding to recombinant human GST-tagged DDR1 (440 to 876 residues ) expressed in baculovirus expression system at 10 uM incubated for 60 mins by Lanthascreen assay relative to control"}, "[19]": {"molecular_target": "Serine/threonine-protein kinase Sgk1 (Homo sapiens) (UniProt O00141)", "test": "Inhibition of recombinant human GST-tagged full length SGK1 (60 to 431 residues) expressed in baculovirus expression system using Ser/Thr 06 as substrate at 10 uM incubated for 60 mins by Z'-Lyte assay relative to control"}, "[20]": {"molecular_target": "Epidermal growth factor receptor (Homo sapiens) (UniProt P00533)", "test": "Inhibition of recombinant human GST-tagged EGFR (668 to 1210 residues) expressed in baculovirus expression system using Tyr 4 as substrate at 10 uM incubated for 60 mins by Z'-Lyte assay relative to control"}, "[21]": {"molecular_target": "Dual specificity protein kinase TTK (Homo sapiens) (UniProt P33981)", "test": "Inhibition of tracer 236 binding to recombinant human GST-tagged full length TTK expressed in baculovirus expression system at 10 uM incubated for 60 mins by Lanthascreen assay relative to control"}, "[22]": {"molecular_target": "Interleukin-1 receptor-associated kinase 4 (Homo sapiens) (UniProt Q9NWZ3)", "test": "Inhibition of recombinant human His-tagged full length IRAK4 expressed in baculovirus expression system using Ser/Thr 07 as substrate at 10 uM incubated for 60 mins by Z'-Lyte assay relative to control"}, "[23]": {"molecular_target": "Testis-specific serine/threonine-protein kinase 1 (Homo sapiens) (UniProt Q9BXA7)", "test": "Inhibition of recombinant human His-tagged full length TSSK1 expressed in baculovirus expression system using Ser/Thr 04 as substrate at 10 uM incubated for 60 mins by Z'-Lyte assay relative to control"}, "[24]": {"molecular_target": "Myosin light chain kinase, smooth muscle (Homo sapiens) (UniProt Q15746)", "sequence (Q15746 whole entry, the tested form may be a part)": "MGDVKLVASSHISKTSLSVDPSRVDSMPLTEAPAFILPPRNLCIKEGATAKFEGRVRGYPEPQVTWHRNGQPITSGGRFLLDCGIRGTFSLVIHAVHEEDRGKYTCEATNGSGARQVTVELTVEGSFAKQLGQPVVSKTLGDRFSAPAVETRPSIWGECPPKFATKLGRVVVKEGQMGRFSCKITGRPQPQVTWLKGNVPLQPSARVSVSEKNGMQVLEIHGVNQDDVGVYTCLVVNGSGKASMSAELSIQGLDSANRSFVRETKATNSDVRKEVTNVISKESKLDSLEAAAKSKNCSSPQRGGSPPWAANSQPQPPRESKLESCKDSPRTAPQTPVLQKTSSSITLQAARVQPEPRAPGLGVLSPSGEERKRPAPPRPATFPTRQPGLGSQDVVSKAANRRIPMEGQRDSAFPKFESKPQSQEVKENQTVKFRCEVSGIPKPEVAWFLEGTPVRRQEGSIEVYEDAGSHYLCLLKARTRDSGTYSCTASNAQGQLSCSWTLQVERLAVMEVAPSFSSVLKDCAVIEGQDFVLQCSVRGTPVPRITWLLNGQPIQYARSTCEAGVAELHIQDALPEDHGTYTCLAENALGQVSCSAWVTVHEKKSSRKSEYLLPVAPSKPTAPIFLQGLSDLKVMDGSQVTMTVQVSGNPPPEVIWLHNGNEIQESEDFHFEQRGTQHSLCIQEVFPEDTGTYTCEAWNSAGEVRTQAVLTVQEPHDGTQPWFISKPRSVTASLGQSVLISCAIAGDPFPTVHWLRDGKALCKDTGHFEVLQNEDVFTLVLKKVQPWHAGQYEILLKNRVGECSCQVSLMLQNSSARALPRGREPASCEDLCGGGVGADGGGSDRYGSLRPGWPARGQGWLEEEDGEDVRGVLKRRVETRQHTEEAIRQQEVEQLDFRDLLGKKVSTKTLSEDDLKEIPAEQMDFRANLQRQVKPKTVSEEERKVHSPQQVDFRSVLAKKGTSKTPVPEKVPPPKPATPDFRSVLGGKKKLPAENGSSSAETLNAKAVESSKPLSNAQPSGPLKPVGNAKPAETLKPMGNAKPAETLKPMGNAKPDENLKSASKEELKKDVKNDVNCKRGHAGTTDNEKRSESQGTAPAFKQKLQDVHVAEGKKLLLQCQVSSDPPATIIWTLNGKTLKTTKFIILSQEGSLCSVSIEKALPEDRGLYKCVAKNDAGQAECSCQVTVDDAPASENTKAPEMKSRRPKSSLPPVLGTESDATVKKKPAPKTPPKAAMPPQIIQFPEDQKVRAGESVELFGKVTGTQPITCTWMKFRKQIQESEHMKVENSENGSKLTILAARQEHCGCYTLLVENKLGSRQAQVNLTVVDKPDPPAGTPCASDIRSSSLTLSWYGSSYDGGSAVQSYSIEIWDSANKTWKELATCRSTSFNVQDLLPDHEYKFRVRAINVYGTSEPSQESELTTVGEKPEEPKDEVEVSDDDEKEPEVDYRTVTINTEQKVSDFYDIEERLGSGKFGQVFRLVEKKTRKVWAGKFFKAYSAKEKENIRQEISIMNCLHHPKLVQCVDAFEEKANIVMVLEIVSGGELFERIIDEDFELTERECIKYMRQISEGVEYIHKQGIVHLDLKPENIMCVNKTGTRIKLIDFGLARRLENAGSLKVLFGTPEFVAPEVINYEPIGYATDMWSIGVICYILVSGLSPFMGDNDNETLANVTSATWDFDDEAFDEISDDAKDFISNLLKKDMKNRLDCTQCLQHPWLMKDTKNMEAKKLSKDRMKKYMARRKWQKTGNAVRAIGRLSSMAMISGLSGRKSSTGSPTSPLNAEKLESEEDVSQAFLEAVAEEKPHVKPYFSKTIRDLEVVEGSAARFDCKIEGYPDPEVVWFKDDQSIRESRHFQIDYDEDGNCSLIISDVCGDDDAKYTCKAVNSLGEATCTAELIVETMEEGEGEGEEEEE", "test": "Inhibition of tracer 236 binding to recombinant human GST-tagged MYLK (1428 to 1771 residues) expressed in baculovirus expression system at 10 uM incubated for 60 mins by Lanthascreen assay relative to control"}}, "data": [{"smiles": "CN1C(=O)[C@@H](NC(=O)c2n[nH]c3ncc(C(F)(F)C(F)(F)F)cc23)COc2ccccc21", "values": [{"measurement": "inhibition", "setting": "[1]", "result": 3.5, "unit": "%"}, {"measurement": "inhibition", "setting": "[2]", "result": 2.5, "unit": "%"}, {"measurement": "inhibition", "setting": "[3]", "result": 7, "unit": "%"}, {"measurement": "inhibition", "setting": "[4]", "result": 2, "unit": "%"}, {"measurement": "inhibition", "setting": "[5]", "result": -0.5, "unit": "%"}, {"measurement": "inhibition", "setting": "[6]", "result": -0.5, "unit": "%"}, {"measurement": "inhibition", "setting": "[7]", "result": 13.5, "unit": "%"}, {"measurement": "inhibition", "setting": "[8]", "result": -0.5, "unit": "%"}, {"measurement": "inhibition", "setting": "[9]", "result": 14.5, "unit": "%"}, {"measurement": "inhibition", "setting": "[10]", "result": 7, "unit": "%"}, {"measurement": "inhibition", "setting": "[11]", "result": 0.5, "unit": "%"}, {"measurement": "inhibition", "setting": "[12]", "result": 17.5, "unit": "%"}, {"measurement": "inhibition", "setting": "[13]", "result": 9, "unit": "%"}, {"measurement": "inhibition", "setting": "[14]", "result": -3.5, "unit": "%"}, {"measurement": "inhibition", "setting": "[15]", "result": 4.5, "unit": "%"}, {"measurement": "inhibition", "setting": "[16]", "result": 7, "unit": "%"}, {"measurement": "inhibition", "setting": "[17]", "result": -9.5, "unit": "%"}, {"measurement": "inhibition", "setting": "[18]", "result": 7, "unit": "%"}, {"measurement": "inhibition", "setting": "[19]", "result": 3, "unit": "%"}, {"measurement": "inhibition", "setting": "[20]", "result": -5, "unit": "%"}, {"measurement": "inhibition", "setting": "[21]", "result": -6.5, "unit": "%"}, {"measurement": "inhibition", "setting": "[22]", "result": 6.5, "unit": "%"}, {"measurement": "inhibition", "setting": "[23]", "result": 0, "unit": "%"}, {"measurement": "inhibition", "setting": "[24]", "result": 7.5, "unit": "%"}]}]}
